Data taken from patent US8691800B2, “Quinoline derivatives as antibacterial agents” (Janssen Pharmaceutica N.V., priority 2005, dated 2014).
Values after ≈ are worked out from the molar mass of the structure shown.

Tests used:
[1] = tested on: Streptococcus pneumoniae (ATCC6305); assay: Microtitre plate assay, IC90 for bacterial growth; type: cell-based; settings: for IC90 SPN 6305: 90% inhibitory concentration for bacterial growth; for IC90: Streptococcus pneumoniae, ATCC6305, 90% inhibitory concentration for bacterial growth, read-out: IC90 SPN 6305
Description: (§1) The bacteria used in this study were grown overnight in flasks containing 100 ml Mueller-Hinton Broth (Becton Dickinson—cat. no. 275730) in sterile de-ionized water, with shaking, at 37° C. Stocks (0.5 ml/tube) were stored at 70° C. until use. Bacteria titrations were performed in microtiter plates and colony forming units (CFUs) were determined. In general, an inoculum level of approximately 100 CFUs was used for susceptibility testing.
(§2) Anti bacterial Susceptibility Testing: IC90 Determination
(§3) Flat-bottom, sterile 96-well plastic microtiter plates were filled with 180 μl of sterile deionized water, supplemented with 0.25% BSA. Subsequently, stock solutions (7.8× final test concentration) of compounds were added in 45 μl volumes in column 2. Serial five-fold dilutions (45 μl in 180 μl) were made directly in the microtiter plates from column 2 to reach column 11. Untreated control samples with (column 1) and without (column 12) inoculum were included in each microtiter plate. Depending on the bacteria type, approximately 10 to 60 CFU per well of bacteria inoculum (100 TCID50), in a volume of 100 μl in 2.8× Mueller-Hinton broth medium, was added to the rows A to H, except column 12. The same volume of broth medium without inoculum was added to column 12 in row A to H. The cultures were incubated at 37° C. for 24 hours under a normal atmosphere (incubator with open air valve and continuous ventilation). At the end of incubation, one day after inoculation, the bacterial growth was quantitated fluorometrically. Therefore resazurin (0.6 mg/ml) was added in a volume of 20 μl to all wells 3 hours after inoculation, and the plates were re-incubated overnight. A change in colour from blue to pink indicated the growth of bacteria. The fluorescence was read in a computer-controlled fluorometer (Cytofluor Biosearch) at an excitation wavelength of 530 nm and an emission wavelength of 590 nm. The % growth inhibition achieved by the compounds was calculated according to standard methods. The IC90 (expressed in μg/ml) was defined as the 90% inhibitory concentration for bacterial growth.

[2] = tested on: Enterococcus faecalis (ATCC29212); assay: Microtitre plate assay, IC90 for bacterial growth; type: cell-based; settings: for IC90: Enterococcus faecalis, ATCC29212, 90% inhibitory concentration for bacterial growth, read-out: IC90 EFA 29212; for IC90 EFA 29212: 90% inhibitory concentration for bacterial growth
Description: as §1, §2, §3

[3] = tested on: Escherichia coli (ATCC35218); assay: Microtitre plate assay, IC90 for bacterial growth; type: cell-based; settings: 90% inhibitory concentration for bacterial growth
Description: as §1, §2, §3

[4] = tested on: Staphylococcus aureus (ATCC29213); assay: Microtitre plate assay, IC90 for bacterial growth; type: cell-based; settings: 90% inhibitory concentration for bacterial growth, 24 hours at 37° C., resazurin; for IC90: Staphylococcus aureus, ATCC29213, 24 h, read-out: IC90 STA 29213
Description: as §1, §2, §3

[5] = tested on: Streptococcus mutans (ATCC33402); assay: Microtitre plate assay, IC90 for bacterial growth; type: cell-based; settings: for IC90: Streptococcus mutans, ATCC33402, 90% inhibitory concentration for bacterial growth, read-out: IC90 SMU 33402; for IC90 SMU 33402: 90% inhibitory concentration for bacterial growth
Description: as §1, §2, §3

[6] = tested on: methicilline resistant Staphylococcus aureus (MRSA) (a clinical isolate from the University of Antwerp); assay: Microtitre plate assay, IC90 for bacterial growth; type: cell-based; settings: 90% inhibitory concentration for bacterial growth; for IC90: Staphylococcus aureus, MRSA, read-out: IC90 STA RMETHIC
Description: as §1, §2, §3

[7] = tested on: Escherichia coli (ATCC1403); assay: Microtitre plate assay, IC90 for bacterial growth; type: cell-based
Description: as §1, §2, §3

[8] = tested on: Enterococcus faecalis (ATCC14506); assay: Microtitre plate assay, IC90 for bacterial growth; type: cell-based; settings: 90% inhibitory concentration for bacterial growth; for IC90: read-out: IC90 EFA 14506
Description: as §1, §2, §3

[9] = tested on: Listeria monocytogenes (ATCC49594); assay: Microtitre plate assay, IC90 for bacterial growth; type: cell-based; settings: for IC90: Listeria monocytogenes, ATCC49594, 90% inhibitory concentration for bacterial growth, read-out: IC90 LMO 49594; for IC90 LMO 49594: 90% inhibitory concentration for bacterial growth
Description: as §1, §2, §3

[10] = tested on: Pseudomonas aeruginosa (ATCC27853); assay: Microtitre plate assay, IC90 for bacterial growth; type: cell-based; settings: for IC90: Pseudomonas aeruginosa, ATCC27853, 90% inhibitory concentration for bacterial growth, read-out: IC90 PAE 27853; for IC90 PAE 27853: 90% inhibitory concentration for bacterial growth
Description: as §1, §2, §3

[11] = tested on: Bacillus subtilis (ATCC43639); assay: Microtitre plate assay, IC90 for bacterial growth; type: cell-based; settings: for IC90 BSU 43639: 90% inhibitory concentration for bacterial growth; for IC90: Bacillus subtilis, ATCC43639, 90% inhibitory concentration for bacterial growth, read-out: IC90 BSU 43639
Description: as §1, §2, §3

[12] = tested on: Streptococcus pyogens (ATCC8668); assay: Microtitre plate assay, IC90 for bacterial growth; type: cell-based; settings: for IC90: Streptococcus, ATCC8668, 90% inhibitory concentration for bacterial growth, read-out: IC90 SPY 8668; for IC90 SPY 8668: 90% inhibitory concentration for bacterial growth
Description: as §1, §2, §3

[13] = tested on: Staphylococcus aureus (ATCC25923); assay: Microtitre plate assay, IC90 for bacterial growth; type: cell-based; settings: for IC90: Staphylococcus aureus, ATCC25923, 90% inhibitory concentration for bacterial growth, read-out: IC90 STA 25923; for IC90 STA 25923: 90% inhibitory concentration for bacterial growth
Description: as §1, §2, §3

[14] = tested on: Staphylococcus aureus (ATCC43300); assay: Microtitre plate assay, IC90 for bacterial growth; type: cell-based; settings: 90% inhibitory concentration for bacterial growth
Description: as §1, §2, §3

[15] = tested on: Escherichia coli (ATCC25922); assay: Microtitre plate assay, IC90 for bacterial growth; type: cell-based; settings: 90% inhibitory concentration for bacterial growth, read-out: IC90 ECO 25922
Description: as §1, §2, §3

Row | Compound | IC90 SPN 6305 [1] | IC90 [2] | IC90 [4] | IC90 [5] | IC90 [6] | IC90 [8] | IC90 [9] | IC90 [10] | IC90 BSU 43639 [11] | IC90 [12] | IC90 [13] | melting point | IC90 EFA 29212 [2] | IC90 STA 29213 [4] | IC90 STA RMETHIC [6] | IC90 LMO 49594 [9] | IC90 PAE 27853 [10] | IC90 SPY 8668 [12] | IC90 STA 25923 [13] | IC90 [11] | other results
1 | COc1nc2ccc(Cl)cc2cc1C(c1ccccc1)C1(c2cccc3ccccc23)CC[N+](C)(C)CO1.[I-] (single isomer, unassigned) [Compound 16] | 5.2 µg/mL | 2.6 µg/mL | 1.9 µg/mL | 2.1 µg/mL | 2.1 µg/mL | 2.1 µg/mL | 1.7 µg/mL | 10.5 µg/mL | 10.5 µg/mL | 1.9 µg/mL | 1.9 µg/mL | 195 °C | – | – | – | – | – | – | – | – | IC90 ([3]; read-out: IC90 ECO 35218): 41.6 µg/mL; IC90 ([7]; Escherichia coli, ATCC1403, 90% inhibitory concentration for bacterial growth, read-out: IC90 ECO 1403): 13.2 µg/mL; IC90 STA 43300 [14]: 41.6 µg/mL
2 | COc1nc2ccc(Cl)cc2cc1C(c1ccccc1)C1(c2cccc3ccccc23)CC[N+](C)(C)CO1.[I-] (single isomer, unassigned) [Compound 15] | 2.3 µg/mL | – | – | – | – | – | – | – | 2.1 µg/mL | – | – | 211 °C | 2.1 µg/mL | 1.86 µg/mL | 1.9 µg/mL | 2.1 µg/mL | 9.3 µg/mL | 1.9 µg/mL | 2.1 µg/mL | – | IC90 ECO 35218 [3]: 41.6 µg/mL; IC90 SMU 33402 [5]: 1.9 µg/mL; IC90 ECO 1403 ([7]; 90% inhibitory concentration for bacterial growth): 10.5 µg/mL; IC90 [15]: 10.5 µg/mL; IC90 EFA 14506 [8]: 2.1 µg/mL; IC90 STA 43300 [14]: 9.3 µg/mL
3 | COc1ccc2nc(OC)c(C(c3ccccc3)C3(c4cccc5ccccc45)CCN(C)CO3)cc2c1 (single isomer, unassigned) [Compound 4] | – | – | – | 20.1 µg/mL (≈ 39.8 µM) | 50.5 µg/mL (≈ 100 µM) | – | – | – | 50.5 µg/mL (≈ 100 µM) | 20.1 µg/mL (≈ 39.8 µM) | – | – | 50.5 µg/mL (≈ 100 µM) | 50.5 µg/mL (≈ 100 µM) | – | 25.3 µg/mL (≈ 50.1 µM) | 50.5 µg/mL (≈ 100 µM) | – | 50.5 µg/mL (≈ 100 µM) | – | IC90 [1]: 1 µg/mL (≈ 1.98 µM)
4 | COc1nc2ccc(-c3ccco3)cc2cc1C(c1ccccc1)C1(c2cccc3ccccc23)CCN(C)CO1 (single isomer, unassigned) [Compound 12] | 12.1 µg/mL (≈ 22.4 µM) | – | – | 10.8 µg/mL (≈ 20 µM) | – | – | 13.6 µg/mL (≈ 25.2 µM) | – | – | – | – | – | 13.6 µg/mL (≈ 25.2 µM) | 13.6 µg/mL (≈ 25.2 µM) | 13.6 µg/mL (≈ 25.2 µM) | – | 13.6 µg/mL (≈ 25.2 µM) | 10.8 µg/mL (≈ 20 µM) | 13.6 µg/mL (≈ 25.2 µM) | – | –
5 | COc1ccc2nc(OC)c(C(c3ccccc3)C3(c4cccc5ccccc45)CCN(C)CO3)cc2c1 (single isomer, unassigned) [Compound 10] | 1.1 µg/mL (≈ 2.18 µM) | – | – | – | – | – | – | – | 2.5 µg/mL (≈ 4.95 µM) | – | – | – | 12.7 µg/mL (≈ 25.2 µM) | 12.7 µg/mL (≈ 25.2 µM) | 50.5 µg/mL (≈ 100 µM) | 10.1 µg/mL (≈ 20 µM) | 12.7 µg/mL (≈ 25.2 µM) | 10.1 µg/mL (≈ 20 µM) | 12.7 µg/mL (≈ 25.2 µM) | – | IC90 SMU 33402 [5]: 12.7 µg/mL (≈ 25.2 µM)
6 | COc1nc2ccc(C)cc2cc1C(c1ccccc1)C1(c2cccc3ccccc23)CCN(C)CO1 (single isomer, unassigned) [Compound 5] | 10.9 µg/mL (≈ 22.3 µM) | 48.9 µg/mL (≈ 100 µM) | 48.9 µg/mL (≈ 100 µM) | 24.5 µg/mL (≈ 50.1 µM) | 48.9 µg/mL (≈ 100 µM) | – | 48.9 µg/mL (≈ 100 µM) | 48.9 µg/mL (≈ 100 µM) | – | – | 48.9 µg/mL (≈ 100 µM) | – | – | – | – | – | – | 8.7 µg/mL (≈ 17.8 µM) | – | 48.9 µg/mL (≈ 100 µM) | –
7 | COc1nc2ccc(Cl)cc2cc1C(c1ccccc1)C1(c2cccc3ccccc23)CCN(C)CO1 (single isomer, unassigned) [Compound 14] | – | 12.8 µg/mL (≈ 25.1 µM) | 12.8 µg/mL (≈ 25.1 µM) | – | 12.8 µg/mL (≈ 25.1 µM) | 12.8 µg/mL (≈ 25.1 µM) | 12.8 µg/mL (≈ 25.1 µM) | 12.8 µg/mL (≈ 25.1 µM) | – | 12.8 µg/mL (≈ 25.1 µM) | 12.8 µg/mL (≈ 25.1 µM) | 189 °C | – | – | – | – | – | – | – | 12.8 µg/mL (≈ 25.1 µM) | IC90 [1]: 12.8 µg/mL (≈ 25.1 µM)
8 | COc1nc2ccc(Br)cc2cc1C(c1ccccc1)C1(C2=CC=CCC2)CCN(C)CO1 (single isomer, unassigned) [Compound 8] | – | 12.7 µg/mL (≈ 25.1 µM) | 12.7 µg/mL (≈ 25.1 µM) | – | 12.7 µg/mL (≈ 25.1 µM) | 40 µg/mL (≈ 79.1 µM) | 12.7 µg/mL (≈ 25.1 µM) | 10 µg/mL (≈ 19.8 µM) | – | 12.7 µg/mL (≈ 25.1 µM) | 12.7 µg/mL (≈ 25.1 µM) | 168 °C | – | – | – | – | – | – | – | 12.7 µg/mL (≈ 25.1 µM) | IC90 [1]: 12.7 µg/mL (≈ 25.1 µM)
9 | COc1nc2ccc(C)cc2cc1C(c1ccccc1)C1(c2cccc3ccccc23)CCN(C)CO1 (single isomer, unassigned) [Compound 11] | 4.9 µg/mL (≈ 10 µM) | – | – | – | – | – | – | – | 48.9 µg/mL (≈ 100 µM) | – | – | – | 48.9 µg/mL (≈ 100 µM) | 48.9 µg/mL (≈ 100 µM) | 48.9 µg/mL (≈ 100 µM) | 48.9 µg/mL (≈ 100 µM) | 48.9 µg/mL (≈ 100 µM) | 19.5 µg/mL (≈ 39.9 µM) | 48.9 µg/mL (≈ 100 µM) | – | IC90 SMU 33402 [5]: 48.9 µg/mL (≈ 100 µM)
10 | COc1nc2ccc(Br)cc2cc1C(c1ccccc1)C1(c2cccc3ccccc23)CCN(C)CO1 (single isomer, unassigned) [Compound 1] | 5.5 µg/mL (≈ 9.94 µM) | – | – | 44 µg/mL (≈ 79.5 µM) | 55.4 µg/mL (≈ 100 µM) | – | 44 µg/mL (≈ 79.5 µM) | – | – | – | 55.4 µg/mL (≈ 100 µM) | 112 °C | 55.4 µg/mL (≈ 100 µM) | 55.4 µg/mL (≈ 100 µM) | – | – | 44.0 µg/mL (≈ 79.5 µM) | 44.0 µg/mL (≈ 79.5 µM) | – | 44 µg/mL (≈ 79.5 µM) | –
